# In patent publication US4338331A, “Isoindoline derivative and a therapeutic composition thereof” (priority 1979, dated 1982):
# “And” between values parts separate entries of the source, which are not always exact repeats. Equal entries are not always repeated.
# Key:
# [1] = Acute toxicity, oral, rat; assay type: in vivo; details: in vivo, rat, read-out: DL50
# Description: (§1) Acute toxicity was determined orally in the Wister rat and in the Swiss mouse of both sexes.
# (§2) The animals were kept fasting for at least 12 hours before the tests but whith free access to water. The compound was suspended homogeneously in gum arabic mucilage and was administered, at the set doses, in a volume of 40 ml/kg by means of a gastro-oesophageal probe.
# (§3) Each dose was tested on ten animals, of which five were male and five female. The weight of the rats varied from 300 to 350 g for the males and from 220 g to 250 g for the females. The weight of the mice, of both sexes, varied from 28 g to 35 g.
# (§4) The observation lasted ten days.
# [2] = tested on: Wister rat; test: Acute toxicity, oral, rat; assay type: in vivo
# Description: as §1, §2, §3, §4
# [3] = Chronic (subacute) toxicity, 28 days oral, male rat; assay type: in vivo; details: rat, in vivo, 4 weeks
# Description: (§5) These tests were carried out on the male Wistar rat having a body weight which varied from 188 to 228 grams. The animals were randomly divided into groups of ten each, and treated in the following manner:
# (§6) Group A--CONTROLS--10% gum arabic, 10 ml/kg/day by oral administration using a gastro-oesophageal probe for 28 consecutive days;
# (§7) Group B--CM/1 20 mg/10 ml of 10% gum arabic per kg/day by oral administration using a gastro-oesophageal probe for 28 consecutive days;
# (§8) Group C--CM/1 40 mg/10 ml of 10% gum arabic per kg/day by oral administration using a gastro-oesophageal probe for 28 consecutive days.
# (§9) In all the groups tested, the body weight was measured daily at the moment of administration, and recorded at regular intervals.
# (§10) The general conditions of food and water consumption were noted, and any mortality and the symptomatology were recorded.
# (§11) Between the 25th and 27th day of treatment, all the tested groups were kept in suitable metabolic cages (single) in order to collect the urine spontaneously ejected, and thus determine its composition by reactive Bili-Labstix strips of Ames.
# (§12) Between the 27th and 29th day of treatment, all the animals, which has fasted for 12 hours but with free access to water, were sacrificed by decapitation (a small animal decapitator of the Amer. Instr. Corp. was used). The following were determined from the blood collected from the trunk:
# (§13) azotemia (Dell'Aira, in King E.--Microanalisi nella Biochimica medica. II Pensiero Sci. Ed., ROMA 1951);
# (§14) glycemia (Price D. J.--Analyst 92; 198, 1967);
# (§15) total bilirubinemia (Jendrassik L. and Grof. P.--Biochem. Z. 297;81, 1938);
# (§16) total cholesterolemia (Huan T. C., Chen C. P., Wefler V. and Battey A.--Anal. Chem. 33; 1405, 1961);
# (§17) total lipidemia (Zollner N. and Kirsch K.--Z. ges. Exp. Med. 135; 545, 1962)
# (§18) SGOT and SGPT transaminase (Reitman S. and Frankel E.--Amer J. Clin. Path. 28;56, 1957);
# (§19) total protidemia by the biuret colorimetric method, using lyphilised Hyland serum as standard;
# (§20) sodaemia and potassaemia using the photometric method.
# (§21) A macroscopic examination was also made of the main organs in order to note any alterations or tumor masses which could indicate neoplasia. Particular attention was given to the examination of the stomach and intestine of the rats treated with the highest dose, in order to determine the degree of local tolerability to repeated administration of CM/1 over 28 days by the gastro-enteric mucosa.
# (§22) For this purpose, the stomach and intestine were subjected to macro and microscopic examination, these being sectioned along the greater curvature (stomach) and along the major axis (intestine), washed with tepid physiological solution extended and carefully observed with a magnifying lens, in order to note hyperemia zones with ulcerations or with other trophic alterations of the mucosa.
# [4] = tested on: male Wistar rat; test: as above; assay type: in vivo; details: 20 and 40 mg/kg/day oral, 28 days
# Description: as §5, §6, §7, §8, §9, §10, §11, §12, §13, §14, §15, §16, §17, §18, §19, §20, §21, §22
# [5] = tested on: female Wistar rats; test: Effect on spontaneous diuresis (TABLE 3); assay type: in vivo, Wistar rat; details: 5 mg/kg oral; for Excreted sodium/potassium ratio: 12 h; for Potassium excretion / Sodium excretion: spontaneous diuresis
# Description: These investigations were carried out on Wistar rats of both sexes, having a body weight which is specified in each case in the relative tables, which compare the results with Indapamide. Both the CM/1 and the Indapamide were administered orally after being suitably dissolved in the following solvent:
# (§23) The controls were treated with an equal volume of solvent. The experiments were carried out on animals which had regularly fasted for at least 12 hours, but had free access to water.
# (§24) The sodium and potassium in the urine were determined by a photometric method.
# Finally, the effect on the new product of spontaneous diuresis was determined.
# These investigations were carried out on 15 female Wistar rats having a body weight varying from 230 to 260 g, and divided at random into three groups of 5. The animals were kept in individual metabolic cages overnight for a period of 12 hours in order to collect the urine spontaneously excreted. One group was treated as usual with 1 ml/kg of solvent by means of a gastric probe, and the other two were treated respectively with 5 mg/kg of Indapamide and 5 mg/kg of CM/1. The sodium and potassium were analysed as usual in the urine collected.
# [6] = tested on: male Wistar rat; test: Chronic (subacute) toxicity, 28 days oral, male rat; assay type: in vivo; details: 20 mg/kg and 40 mg/kg, printed '48 consecutive days'
# [7] = tested on: male rats; test: Diuretic and saluretic activity: excretion of a load of distilled water (TABLE 2); assay type: in vivo, Wistar rat; details: 5 mg/kg oral + aqueous load
# Description: Both the CM/1 and the Indapamide were administered orally after being suitably dissolved in the following solvent:
# as §23, §24
# The rats were then immediately placed in individual metabolic cages. The urine was collected over 4 hours. The quantity has been expressed in the usual manner as a percentage of the volume administered.
# Sodium and potassium were also analysed, and these have been expressed as mEq/4h.
# After two days, in the preceding manner, the same rats were treated with Indapamide, and after a further two days with the product CM/1. In the interval between one test and the other, the rats were housed and fed in the normal manner. The dose used for both compounds was the same as previously, i.e. 5 mg/kg.
# [8] = tested on: Swiss mouse; test: Acute toxicity, oral, mouse; assay type: in vivo
# Description: as §1, §2, §3, §4
smiles,measurement,setting,value
"CC1c2ccccc2CN1NC(=O)c1ccc(Cl)c(S(N)(=O)=O)c1 (centres unmarked) [CM/1, 1-methyl-2-(3'-sulphamyl-4'-chlorobenzamido)-isoindoline]",LD50 at 240 h,[1],> 2500 mg/kg
same,DL50,"[2]; Wister rat, both sexes, 10 days observation","> 2,500 mg/kg"
same,deaths / toxic symptomatology,"[2]; rat, individual doses up to 2,500 mg/kg","No deaths were observed either in the rat or in the mouse, nor was any particular toxic symptomatology found"
same,selectivity ratio at 672 h,"[3]; daily doses up to 40 mg/kg oral, read-out: tolerated doses relative to the maximum daily human therapeutic dose",560
same,NOAEL at 672 h,"[3]; oral, read-out: well tolerated daily dose (subacute toxicity)",≥ 40 mg/kg/day
same,alteration in the organs examined or in the gastro-enteric mucosa,[4],No alteration was noted
same,behaviour and food consumption,[4],"Behaviour was normal, as was food consumption"
same,deaths during the 28 days of treatment,[4],no deaths were recorded
same,sodaemia and potassaemia,[4],slight reduction in the potassaemia and sodaemia
same,symptomatology,[4],No particular symptomatology was noted
same,urine composition,"[4]; collected days 25-27, versus controls",in practice similar for the controls and treated animals
same,hematic biochemical constants,[4]; except sodaemia and potassaemia,all within the range of normal values for the rat of this stock
same,body weight,[4]; versus controls,in practice similar to the data for the controls
same,hemograms,[4]; versus controls,"all normal, without any significant differences between the controls and treated animals"
same,water consumption,[4]; versus controls,slightly greater than the controls
same,diuretic action,[5],"marked diuretic action, which is stronger in the case of the product CM/1"
same,"ratio of sodium to potassium excretion, CM/1 compared with Indapamide",[5],"higher in the group treated with the product CM/1, and the difference reaches statistical significance"
same,sodium and potassium excretion,[5],increased
same,Excreted sodium/potassium ratio,[5]; individual rats,1.651 and 2.262 and 2.277 and 2.188 and 1.746
same,Excreted sodium/potassium ratio,"[5]; mean ± standard error, n = 5",2.024 ± 0.134
same,ml of urine collected in 12 hours,[5]; individual rats,10.5 mL and 17.5 mL and 21.0 mL and 16.6 mL and 15.0 mL
same,ml of urine collected in 12 hours,"[5]; mean ± standard error, n = 5",16.12 ± 1.71 mL
same,Potassium excretion,[5]; individual rats,3.708 mEq/12h and 3.042 mEq/12h and 3.911 mEq/12h and 3.508 mEq/12h and 3.430 mEq/12h
same,Sodium excretion,[5]; individual rats,6.123 mEq/12h and 6.880 mEq/12h and 8.906 mEq/12h and 7.675 mEq/12h and 5.989 mEq/12h
same,Potassium excretion,"[5]; mean ± standard error, n = 5",3.5198 ± 0.145 mEq/12h
same,Sodium excretion,"[5]; mean ± standard error, n = 5",7.114 ± 0.539 mEq/12h
same,damaging side-effects,[6],no damagingside-effects
same,activity of CM/1 compared with Indapamide,[7],more active than the Indapamide
same,diuretic and saluretic action,[7],significant diuretic and saluretic action
same,RATIO Na/K (sodium to potassium excreted),"[7]; 4 h, average",2.6955
same,Cumulative percent excretion at 1 hour from load,[7]; individual rats,58.1% and 50.0% and 7.1% and 55.2% and 51.6%
same,Cumulative percent excretion at 2 hours from load,[7]; individual rats,109.7% and 78.6% and 57.1% and 110.4% and 125.8%
same,Cumulative percent excretion at 3 hours from load,[7]; individual rats,116.2% and 107.2% and 85.7% and 134.5% and 145.2%
same,Cumulative percent excretion at 4 hours from load,[7]; individual rats,116.2% and 121.4% and 114.3% and 134.5% and 167.8%
same,Potassium excretion,[7]; individual rats,0.00542 mEq/4h and 0.00512 mEq/4h and 0.00603 mEq/4h and 0.00856 mEq/4h and 0.01399 mEq/4h
same,Sodium excretion,[7]; individual rats,0.01374 mEq/4h and 0.01362 mEq/4h and 0.0125 mEq/4h and 0.01671 mEq/4h and 0.04889 mEq/4h
same,Cumulative percent excretion at 1 hour from load,[7]; mean of 5 rats,44.4%
same,Cumulative percent excretion at 2 hours from load,[7]; mean of 5 rats,96.32%
same,Cumulative percent excretion at 3 hours from load,[7]; mean of 5 rats,117.76%
same,Cumulative percent excretion at 4 hours from load,[7]; mean of 5 rats,130.84 ± 9.89%
same,Potassium excretion,[7]; mean of 5 rats,0.007824 mEq/4h
same,Sodium excretion,[7]; mean of 5 rats,0.02109 mEq/4h
same,DL50,"[8]; Swiss mouse, both sexes, 10 days observation","> 2,500 mg/kg"
same,deaths / toxic symptomatology,"[8]; mouse, individual doses up to 2,500 mg/kg","No deaths were observed either in the rat or in the mouse, nor was any particular toxic symptomatology found"
